Test results reported in US20260265771A1, “METHODS OF INCREASING THE REGENERATION EFFICIENCY IN PLANTS” (Institute of Genetics and Developmental Biology Chinese …, priority 2022, published 2026).
Entries after “also recorded” stand apart in the source; their conditions may differ.

Assays:
[1] = tested on: hypocotyl explants of tomato cultivar Ailsa Craig; assay: Callus formation of tomato hypocotyl explants on callus-inducing medium (CIM); type: cell-based
Description: FIG. 6—(a) Hypocotyl explants of WT (Ailsa Craig, AC) and prr mutants were cultured on callus-inducing medium (CIM) in the absence of SIPEP (REF1) and CIM REF1 at a concentration of 1 nM for 14 days, photographs of the callus formation of these plants are shown. (b) The distribution of projected callus area of WT and prr mutants grown in the absence of REF1 in a callus inducing medium (control) and in a callus inducing medium in the presence of 1 nM SIPEP (REF1). The projected area of callus was quantified by Image J. Individual values (black dots) are shown and error bars represent SD from three independent experiments.
FIG. 9—Hypocotyl explants of WT (Ailsa Craig, AC) were cultured on callus-inducing medium (CIM) containing indicated concentrations of REF1, and callus phenotype was scored 14 days after incubation. […] The projected area of callus was quantified by Image J. Individual values (black dots) are shown and error bars represent SD from three independent experiments. ***P<0.001, **P<0.01, *P<0.05 (Student's t-test).
Relative callus area was determined by quantifying the area of each callus using ImageJ, the average of each group was calculated, for each group this was then divided by the average of the control group.
To further test whether SIPEP (REF1) is a wound signal promoting regeneration in tomato, wild type, prr-1 and prr-2 Aisla Craig hypocotyl explants were cultured on a callus inducing medium in the presence and absence of SIPEP (REF1) at 1 nM. The callus phenotype was then scored at 14 days after incubation (FIG. 6), here it can be seen that presence of 1 nM REF1 in the medium increased callus area in all explants tested, crucially, the relative callus area of prr-1 and prr-2 was restored when REF1 was present in the medium.
To test the effect of the dose of SIPEP (REF1) on callus formation hypocotyl explants of WT (Ailsa Craig) were cultured on callus-inducing medium (CIM) containing indicated concentrations of REF1 in FIG. 9 (mock with 0, 10^−4, 10^−3, […], 1, and 10 nM) and callus phenotype was scored 14 days after incubation. Box plots represent the distribution of projected callus area.
Callus formation was measured in RER knock out mutants (rer-1 and rer-3) compared to wild type (WT) tomato plants (Ailsa Craig) in the presence and absence of SIPEP (REF1). […] Here it can be seen that callus area was highest in WT plant grown with REF1, as REF1 induces callus formation, as shown in Examples 2 and 4.

[2] = tested on: hypocotyl explants of tomato cultivar Ailsa Craig; assay: Shoot regeneration of tomato hypocotyl explants on shoot inducing medium (SIM); type: cell-based
Description: FIG. 8—Hypocotyl explants of wild-type (WT) Ailsa Craig and prr mutants cultured in the presence or absence of SIPEP (REF1) at 1 nM in a shoot inducing medium for 21 days.
Relative regeneration frequency was determined by counting the number of regenerated shoots and calculating the average for each group, the average of each group was then divided by the average of the control group.
The number of hypocotyls means explants with varying numbers of regenerated shoots.
To test whether SIPEP (REF1) could rescue shoot regeneration defects in prr mutants were cultured in shoot inducing medium (SIM) in the presence and absence of 1 nM REF1. Shoot regeneration was then scored after 21 days.
Relative regeneration frequency was determined by counting the number of regenerated shoots and calculating the average for each group, the average of each group was then divided by the average of the WT-Mock group.
‘The number of hypocotyls’ means explants with different number of regenerated shoots (0, 1, 2, 3 and ≥4) in each of the genotypes (WT, prr-1, prr-2).
Shoot regeneration was also measured in RER knock out mutants (rer-1 and rer-3) compared to wild type (WT) tomato plants (Ailsa Craig) in the presence and absence of SIPEP (REF1).

[3] = tested on: RER1-SERKs receptor complex; assay: Co-immunoprecipitation of RER with SERKs in tobacco leaves; type: cell-based, tomato; settings: 100 nM REF1
Description: FIG. 49—REF1-RER1 regulates regeneration through SERK co-receptors. (a) RER1 complexes with SERK1, SERK3a and SERK3b in a REF1-dependent manner. Tobacco leaves transfected with SERKs-myc and RER1-HA-Flag were treated with 100 nM REF1 before IP with anti-myc agarose. RER1 and SERKs were detected by immunoblotting with anti-Flag or anti-myc antibodies, respectively. (b and c) REF1-induced callus formation of indicated genotypes. Hypocotyl explants were cultured on CIM with or without 1 nM REF1 for 14 d before callus phenotype was scored. Shown are representative callus images (b) and quantification of the callus projection area (c). Bars, 1 mm. Data are mean±SE. n=30 hypocotyl explants. (d and e) REF1-induced shoot organogenesis of indicated genotypes. Hypocotyl explants were cultured on CIM for 14 d and then transferred to SIM with or without 1 nM REF1 for 21d before shoot organogenesis phenotype was scored. Shown are representative images of hypocotyl explants (d) and the number of regenerated shoots per explant (e). Bars, 0.5 cm. Data are mean±SE. n=50 hypocotyl explants. In (c), the projected area of callus was quantified by Image J. Box plots represented the distribution of projected callus area. […] In (c) and (e), data points from three biological replicates were analysed with a one-sided Kruskal-Wallis test with Holm correction, followed by post hoc Dunn's test. […]

[4] = rer-1 and rer-3 knockouts, presence vs absence of REF1
[5] = WT, prr-1 and prr-2, SIM with 1 nM REF1, 21 days

Sequence of RER1-SERKs receptor complex (as listed by the source): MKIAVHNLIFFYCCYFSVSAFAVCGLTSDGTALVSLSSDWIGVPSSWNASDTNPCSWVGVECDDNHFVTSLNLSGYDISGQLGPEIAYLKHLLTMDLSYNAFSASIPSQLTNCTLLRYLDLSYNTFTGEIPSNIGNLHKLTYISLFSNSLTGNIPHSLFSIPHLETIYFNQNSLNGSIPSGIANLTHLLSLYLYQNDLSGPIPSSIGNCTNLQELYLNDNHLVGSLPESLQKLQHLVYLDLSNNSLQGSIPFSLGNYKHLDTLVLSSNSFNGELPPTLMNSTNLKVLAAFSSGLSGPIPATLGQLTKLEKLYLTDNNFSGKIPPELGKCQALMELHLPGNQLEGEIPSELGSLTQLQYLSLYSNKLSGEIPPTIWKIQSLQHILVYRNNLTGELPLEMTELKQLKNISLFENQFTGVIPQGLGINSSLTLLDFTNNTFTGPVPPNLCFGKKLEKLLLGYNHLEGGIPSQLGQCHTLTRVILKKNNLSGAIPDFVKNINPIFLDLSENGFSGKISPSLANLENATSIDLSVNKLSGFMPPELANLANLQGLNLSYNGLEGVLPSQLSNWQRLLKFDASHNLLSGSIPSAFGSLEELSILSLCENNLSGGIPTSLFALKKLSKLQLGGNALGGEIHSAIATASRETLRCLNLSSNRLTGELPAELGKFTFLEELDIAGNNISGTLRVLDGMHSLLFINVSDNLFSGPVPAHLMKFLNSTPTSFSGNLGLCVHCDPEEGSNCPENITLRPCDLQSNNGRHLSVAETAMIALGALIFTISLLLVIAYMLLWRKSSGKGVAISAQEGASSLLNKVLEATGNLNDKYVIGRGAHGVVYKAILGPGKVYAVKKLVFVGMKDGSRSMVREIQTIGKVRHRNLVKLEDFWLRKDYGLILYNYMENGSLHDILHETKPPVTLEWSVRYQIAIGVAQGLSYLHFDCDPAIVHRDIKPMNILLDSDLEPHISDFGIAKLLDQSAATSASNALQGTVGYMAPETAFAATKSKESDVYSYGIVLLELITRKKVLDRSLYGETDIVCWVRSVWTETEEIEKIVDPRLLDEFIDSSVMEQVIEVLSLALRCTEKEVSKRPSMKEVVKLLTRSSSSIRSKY

ATDRRGRPPSRPKVGSGPPPQNN (listed as Solanum lycopersicum) [REF1, 23 amino acid tomato peptide cleaved from precursor PROSIPEP]
optimum concentration to maximize callus formation ([1]; WT Ailsa Craig explants, CIM, 14 days): 1 nM | relative callus area ([1]; WT Ailsa Craig, 10 nM REF1 compared with 1 nM): sharp decrease | relative callus area ([1]; WT Ailsa Craig, CIM with 1 nM REF1 vs without, 14 days): induced larger callus areas; also recorded: highest | relative callus area, dose dependence ([1]; WT Ailsa Craig, CIM, mock to 10 nM REF1, 14 days): increased in a dose dependent manner | relative callus area ([1]; prr-1 and prr-2 mutants, CIM with 1 nM REF1, 14 days): restored | REF1 induced callus formation (relative callus area) [1, 4]: failing to lead to any increase; also recorded: defective | shoot regeneration ([2]; WT Ailsa Craig, SIM with 1 nM REF1 vs without, 21 days): increased; also recorded: highest | number of hypocotyl [2, 5]: increased | relative regeneration frequency [2, 5]: increased | shoot regeneration ([2]; prr-1 and prr-2 mutants, SIM with 1 nM REF1, 21 days): rescued | REF1 induced shoot regeneration (shoot regeneration frequency, number of hypocotyl) [2, 4]: did not lead to any increase; also recorded: defective | complex formation of RER with SERK1, SERK3a and SERK3b (co-IP) [3]: could simulate complex formation; also recorded: REF1-dependent
